The values below come from patent publication US8029979B2, “Method for determining the substrate specificity of an enzyme” (JPT Peptide Technologies GmbH, priority 2001, dated 2011).

Assay type in all cases: biochemical
Test [1] deals with T1, protein kinase A (Bos taurus, UniProt P00517).
T1 construct: purchased Sigma P26452 as printed
Nature of the test: Phosphorylation of glass-immobilised peptide array by protein kinase A (FIG. 9, Example 33). Particulars: protein kinase A 10 U/mL, ATP/γ32P-ATP, 30 min at 25° C., maleinimido-functionalised glass, PhosphorImager. Here is the method: FIG. 9. Precisely 43 serine and/or threonine-containing peptides (potential substrate peptides for kinases) and the corresponding control peptides, each modified at the N-terminus with the dipeptide cysteinyl-β-alanine, were coupled to a maleinimido-functionalised glass surface by a Michael addition (Example 18). In the control peptides the serine and/or threonine residues were replaced by alanine, the sequence remaining otherwise the same. The application was carried out using a NanoPlotter from Gesim. The spot-to-spot distance was 1 mm and 0.8 nL of a peptide solution in 100 mM PBS buffer pH 7.8, containing 20% glycerin, was applied per spot. Here a filled circle represents a serine- or threonine-containing potential substrate peptide and an open circle stands for a control peptide. Three identical subarrays were applied to the glass surface. The numbering of the spots can be seen in FIG. 9C, the sequences of the peptides used are obtained from Example 18. […] After incubation for 30 min at 25° C. the phosphorylation of the corresponding peptides was detected using a FUJIFILM PhosphorImager (Example 39). […]
(§1) After drying the glass surface the quantity of radioactive phosphate incorporated in the glass-surface-bound peptides was determined using a PhosphorImager system (FLA-3000, FUJIFILM). […]

The test system of another test is protein kinase C. Nature of the test: Phosphorylation of glass-immobilised peptide array by protein kinase C (FIG. 8, Example 32). Particulars: protein kinase C 10 U/mL, ATP/γ32P-ATP, 30 min at 25° C., maleinimido-functionalised glass, PhosphorImager. The procedure: FIG. 8. Precisely 43 serine and/or threonine-containing peptides (potential substrate peptides for kinases) and the corresponding control peptides, each modified at the N-terminus with the dipeptide cysteinyl-β-alanine, were coupled to a maleinimido-functionalised glass surface by a Michael addition (Example 18). In the control peptides the serine and/or threonine residues were replaced by alanine, the sequence remaining otherwise the same. The application was carried out using a NanoPlotter from Gesim. The spot-to-spot distance was 1 mm and 0.8 nL of a peptide solution in 100 mM PBS buffer pH 7.8, containing 20% glycerin, was applied per spot. Here a filled circle represents a serine- or threonine-containing potential substrate peptide and an open circle stands for a control peptide. Three identical subarrays were applied to the glass surface. The numbering of the spots can be seen in FIG. 8C, the sequences of the peptides used are obtained from Example 18. After application of the peptides, the modified glass surface was first pre-incubated for 10 minutes using 10 ml of 100 μM ATP solution in 50 mM of sodium phosphate buffer pH 7.5. The modified glass surface was then covered with a second glass surface and Protein kinase C (10 U/mL) together with ATP/γ^32P-ATP mixture (100 μM/mL; 100 μCi/mL) was then inserted into the intermediate space formed thereby by means of capillary force. After incubation for 30 min at 25° C. the phosphorylation of the corresponding peptides was detected using a FUJIFILM PhosphorImager (Example 38). The spots having higher signal intensity in all three subarrays were assigned to the corresponding peptides phosphorylated by the protein kinase C. […] It is thus clear that such an assembly is suitable for characterising the substrate specificity of a kinase, such as protein kinase C, for example.
Precisely 43 serine- and/or threonine-containing peptides (potential substrate peptides for kinases) and the corresponding control peptides, each modified at the N-terminus with the dipeptide cysteinyl-β-alanine, were coupled to a maleinimido-functionalised glass surface by a Michael addition (see Example 18). The numbering of the spots can be seen from FIG. 8C and the sequences of the peptides used are obtained from Example 18. After application of the peptide, the modified glass surface was first pre-incubated using 10 mL of 100 μM ATP […] solution in 50 mM sodium phosphate buffer pH 7.5 for […] minutes. The modified glass surface was then covered with a cover glass and protein kinase C (10 U/mL) together with ATP/γ-^32P-ATP mixture (100 μM/mL; 100 μCi/mL) was incorporated in the intermediate space formed by means of capillary force. Incubation was then carried out for 30 min at 25° C. […]
as §1

For test [2], the target named is T1, protein kinase A. The test can be described thus: Incubation of modified glass surface (11760 spots) with protein kinase A (FIG. 6, Example 28). To be noted: bromoketone-functionalised glass, thioamide linkage, protein kinase A 10 U/mL, 30 min at 25° C. Here is the method:
FIG. 6. A glass surface modified with the peptide Leu-Arg-Arg-Ala-Ser-Leu-Gly-thioamide (see Example 24) amino acid sequence was dissolved in 200 mM sodium phosphate buffer pH 5.5 and at room temperature respectively 1 nL of this solution in an assembly of 70 rows and 168 gaps (total 11760) was applied to the bromoketone-functionalised glass surfaces (Example 10) using a NanoPlotter from Gesim. The spot-to-spot distance was 0.3 mm. The glass surfaces thus treated were then subjected to microwave treatment for 2 min and then incubated for 3 hours at room temperature. Pre-incubation was then carried out for 10 minutes using 10 ml of 100 μM ATP solution in 50 mM of sodium phosphate buffer pH 7.5. […] After incubation for 30 min at 25° C. the phosphorylation of the corresponding peptides was detected using a FUJIFILM PhosphorImager. […] It is furthermore clear that the resolution of the PhosphorImager used here is sufficient to analyse more than 11000 measurement points per biochip. […]
After drying the glass surface the quantity of radioactive phosphate incorporated in the glass-surface-bound peptides was determined using a PhosphorImager system (FLA-3000, FUJIFILM) (see FIG. 6).

Ends that are not written are not given here. BA1 = not defined here

Turning to “Arg-Arg-Ile-Ser-Lys-Asp-Asn-Pro-Asp-Tyr-Gln-Gln-Asp-BA1-Cys-NH2 (RRISKDNPDYQQD-{BA1-Cys-NH2}; reading uncertain; also: printed as Arg-Arg-Ile-Ser-Lys-Asp-Asn-Pro-Asp-Tyr-Gln-Gln-Asp-BA1-Cys-NH2) [peptide 83]”, in the test with protein kinase A [1], the “recognised and phosphorylated by protein kinase A on the modified glass surface” value was “not phosphorylated”.

Take “Cys-BA1-Ala-Lys-Arg-Arg-Arg-Leu-Ser-Ser-Leu-Arg-Ala-NH2 ({Cys-BA1}-AKRRRLSSLRA-NH2; reading uncertain; also: printed as Cys-BA1-Ala-Lys-Arg-Arg-Arg-Leu-Ser-Ser-Leu-Arg-Ala-NH2) [compound 3]”: in the test with protein kinase C, the “recognised and phosphorylated by protein kinase C on the modified glass surface” value is “recognised and phosphorylated”. On to “Cys-BA1-Gln-Lys-Arg-Pro-Ser-Gln-Arg-Ser-Lys-Tyr-Leu-NH2 ({Cys-BA1}-QKRPSQRSKYL-NH2; reading uncertain; also: printed as Cys-BA1-Gln-Lys-Arg-Pro-Ser-Gln-Arg-Ser-Lys-Tyr-Leu-NH2) [compound 27]”, for which, in the test with protein kinase C, the “recognised and phosphorylated by protein kinase C on the modified glass surface” value is “recognised and phosphorylated”. Still for that read-out and setting: the same measure for “Cys-BA1-Lys-Lys-Arg-Phe-Ser-Phe-Lys-Lys-Ser-Phe-Lys-Leu-NH2 ({Cys-BA1}-KKRFSFKKSFKL-NH2; reading uncertain; also: printed as Cys-BA1-Lys-Lys-Arg-Phe-Ser-Phe-Lys-Lys-Ser-Phe-Lys-Leu-NH2) [compound 41]”: “recognised and phosphorylated”; for “Cys-BA1-Pro-Leu-Ser-Arg-Thr-Leu-Ser-Val-Ala-Ala-Lys-Lys-NH2 ({Cys-BA1}-PLSRTLSVAAKK-NH2; reading uncertain; also: printed as Cys-BA1-Pro-Leu-Ser-Arg-Thr-Leu-Ser-Val-Ala-Ala-Lys-Lys-NH2) [compound 23]”: “recognised and phosphorylated”. The same measure, in the same setting: the value for “Cys-BA1-Pro-Lys-Asp-Pro-Ser-Gln-Arg-Arg-Arg-NH2 ({Cys-BA1}-PKDPSQRRR-NH2; reading uncertain; also: printed as Cys-BA1-Pro-Lys-Asp-Pro-Ser-Gln-Arg-Arg-Arg-NH2) [compound 43]” was “recognised and phosphorylated”. Turning to “Leu-Arg-Arg-Ala-Ser-Leu-Gly-thioamide (LRRASLG-thioamide)”, the “linking of the immobilised kinase substrate tolerated by protein kinase A” value with protein kinase A [2] is given as “tolerated by the protein kinase A”.
